From patent publication US20070299072A1, “KV1.5 POTASSIUM CHANNEL INHIBITORS” (Wyeth, priority 2006, published 2007)
pIC50: −log10 of the molar value.

Legend:
Assay type in all cases: cell-based
L-type calcium channels = assay: FLIPR L-type Calcium Channel Assay (calcium influx in HL-1 cells after KCl); details: read-out: L-type Ca2+ IC50
How it was run: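 HL-1 cardiomyocytes loaded with FLIPR calcium dye for 60 min at 37° C in Tyrode's pH 7.35 with 2.5 mM probenecid, then preincubated 15 min with compounds. Channels were opened by 20 mM KCl final, and fluorescence was recorded for 5 min. Influx expressed as % control gave concentration-response IC50.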

HERG = target: T1, HERG (Homo sapiens, UniProt Q12809); assay: HERG Patch Clamp EP (whole cell patch clamp, tail currents; single point at 10 μM and IC50); details: for inhibition at 10 µM: human, HEK cells stably overexpressing HERG, single point at 10 μM, HERG in HEK cells, read-out: HERG % Inhib. @ 10 μM; for pIC50: concentration response
T1 construct: expressed in transfected cells; host or cells: HEK cells
T1 sequence (Q12809 whole entry): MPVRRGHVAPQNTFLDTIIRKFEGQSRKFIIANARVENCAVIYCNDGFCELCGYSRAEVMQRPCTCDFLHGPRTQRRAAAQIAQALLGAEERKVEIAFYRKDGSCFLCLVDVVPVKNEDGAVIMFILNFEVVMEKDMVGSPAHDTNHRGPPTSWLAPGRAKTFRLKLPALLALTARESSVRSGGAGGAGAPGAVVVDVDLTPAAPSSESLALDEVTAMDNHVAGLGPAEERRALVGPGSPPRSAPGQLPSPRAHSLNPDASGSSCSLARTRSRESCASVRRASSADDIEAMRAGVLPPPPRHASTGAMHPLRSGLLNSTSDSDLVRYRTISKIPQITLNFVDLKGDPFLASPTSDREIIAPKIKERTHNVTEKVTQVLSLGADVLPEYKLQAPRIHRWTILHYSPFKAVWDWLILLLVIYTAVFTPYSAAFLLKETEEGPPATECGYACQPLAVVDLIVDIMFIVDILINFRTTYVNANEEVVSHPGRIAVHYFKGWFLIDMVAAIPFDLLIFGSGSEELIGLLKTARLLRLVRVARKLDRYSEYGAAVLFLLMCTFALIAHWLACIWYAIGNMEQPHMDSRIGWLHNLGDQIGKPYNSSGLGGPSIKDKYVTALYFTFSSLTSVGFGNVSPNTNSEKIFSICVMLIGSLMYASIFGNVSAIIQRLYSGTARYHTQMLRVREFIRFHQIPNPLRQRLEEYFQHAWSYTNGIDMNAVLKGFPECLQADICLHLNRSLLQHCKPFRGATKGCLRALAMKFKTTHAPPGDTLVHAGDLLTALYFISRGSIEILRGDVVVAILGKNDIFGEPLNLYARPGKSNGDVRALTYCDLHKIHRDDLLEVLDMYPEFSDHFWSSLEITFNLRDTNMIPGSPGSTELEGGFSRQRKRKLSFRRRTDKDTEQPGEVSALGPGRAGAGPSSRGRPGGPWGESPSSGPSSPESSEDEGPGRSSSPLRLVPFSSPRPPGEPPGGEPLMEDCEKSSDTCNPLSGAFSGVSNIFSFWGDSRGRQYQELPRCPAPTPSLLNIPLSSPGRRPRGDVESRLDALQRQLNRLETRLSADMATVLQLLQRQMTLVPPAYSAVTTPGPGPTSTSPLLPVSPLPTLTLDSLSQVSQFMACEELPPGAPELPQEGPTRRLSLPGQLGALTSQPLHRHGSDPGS
Description: The external solution is standard Tyrodes solution.

Kv1.5 = target: T2, Kv1.5 (Homo sapiens, UniProt P22460); assay: Kv1.5 Patch Clamp EP (whole cell patch clamp; single point at 1 μM and IC50); details: for inhibition at 1 µM: single point at 1.0 μM, Kv1.5 stably over expressed in HEK or LTK- cells; for pIC50: concentration response
T2 construct: expressed in transfected cells; host or cells: HEK or LTK- cells
T2 sequence (P22460 whole entry): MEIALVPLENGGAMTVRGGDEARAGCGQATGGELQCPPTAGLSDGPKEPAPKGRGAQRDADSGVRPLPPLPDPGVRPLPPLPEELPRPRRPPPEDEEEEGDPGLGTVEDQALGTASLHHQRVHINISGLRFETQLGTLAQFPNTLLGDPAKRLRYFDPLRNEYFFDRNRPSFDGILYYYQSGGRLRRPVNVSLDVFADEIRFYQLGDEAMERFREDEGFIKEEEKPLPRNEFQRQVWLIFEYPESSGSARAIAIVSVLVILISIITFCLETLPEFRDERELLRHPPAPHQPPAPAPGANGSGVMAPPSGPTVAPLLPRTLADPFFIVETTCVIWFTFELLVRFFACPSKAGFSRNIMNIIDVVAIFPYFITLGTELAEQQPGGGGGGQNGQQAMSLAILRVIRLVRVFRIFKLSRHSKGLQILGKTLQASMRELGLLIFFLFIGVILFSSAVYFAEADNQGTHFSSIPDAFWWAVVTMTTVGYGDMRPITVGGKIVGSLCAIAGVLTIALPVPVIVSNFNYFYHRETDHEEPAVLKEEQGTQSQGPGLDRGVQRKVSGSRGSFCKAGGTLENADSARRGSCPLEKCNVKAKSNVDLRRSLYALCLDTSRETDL
Experimental: The external solution is standard Tyrodes solution. […] Inhibition was measured at the end of the 1 second pulses and expressed relative to controls. Initial Kv1.5 inhibition is estimated by single point determinations done at 1 μM.

| SMILES | pIC50 (L-type calcium channels) | inhibition at 1 µM (Kv1.5) | pIC50 (Kv1.5) | inhibition at 10 µM (HERG) | pIC50 (HERG) |
| --- | --- | --- | --- | --- | --- |
| CCCCC(=O)N1CCC2(CC1)C(=O)N(CCc1ccc(OC)cc1)C(c1ccc(OC(F)F)cc1)N2C (stereo not drawn) [Compound 81, 2-[4-(difluoromethoxy)phenyl]-3-[2-(4-methoxyphenyl)ethyl]-1-methyl-8-pentanoyl-1,3,8-triazaspiro[4.5]decan-4-one] | 5.05 | 80% | – | 95% | – |
| CN1C(c2ccc(C3CC3)cc2)N(CCCc2ccccc2)C(=O)C12CCN(C(N)=O)CC2 (stereo not drawn) [Compound 49, 2-(4-Cyclopropylphenyl)-1-methyl-4-oxo-3-(3-phenylpropyl)-1,3,8-triazaspiro-[4.5]decane-8-carboxylic acid amide] | 4.85 | 86% | 6.49 | 67% | 5.11 |
| COc1ccc(CCN2C(=O)C3(CCN(C(=O)c4ccno4)CC3)N(C)C2c2ccc(C3CC3)cc2)cc1 (stereo not drawn) [Compound 42, 2-(4-Cyclopropylphenyl)-8-(isoxazol-5-yl-carbonyl)-3-[2-(4-methoxyphenyl)ethyl]-1-methyl-1,3,8-triazaspiro[4.5]decan-4-one] | 4.64 | 94% | – | 81% | – |
| COc1ccc(CCN2C(=O)C3(CCN(C(=O)C4CC4)CC3)N(C)C2c2ccc(OC(F)F)cc2)cc1 (stereo not drawn) [Compound 6, 8-Cyclopropylcarbonyl-2-(4-difluoromethoxyphenyl)-3-[2-(4-methoxyphenyl)-ethyl]-1-methyl-1,3,8-triazaspiro[4.5]decan-4-one] | 4.89 | 68% | – | 85% | – |
| COc1ccc(CCN2C(=O)C3(CCN(C(=O)n4ccnc4)CC3)N(C)C2c2ccc(C3CC3)cc2)cc1 (stereo not drawn) [Compound 91, 2-(4-cyclopropylphenyl)-8-(1H-imidazol-1-ylcarbonyl) —3-[2-(4-methoxyphenyl)ethyl]-1-methyl-1,3,8-triazaspiro[4.5]decan-4-one] | 4.89 | 87% | – | 72% | – |
| COc1ccc(CCN2C(=O)C3(CCN(C(=O)N4CCCC4)CC3)N(C)C2c2ccc(C3CC3)cc2)cc1 (stereo not drawn) [Compound 23, 2-(4-Cyclopropylphenyl)-3-[2-(4-methoxyphenyl)ethyl]-1-methyl-8-(pyrrolidin-1-ylcarbonyl)-1,3,8-triaza-spiro[4.5]decan-4-one] | 5.18 | 96% | 6.74 | 77% | 5.21 |

Further lines, with some results ahead:

| pIC50 (L-type calcium channels) | inhibition at 1 µM (Kv1.5) | pIC50 (Kv1.5) | SMILES | inhibition at 10 µM (HERG) | pIC50 (HERG) |
| --- | --- | --- | --- | --- | --- |
| 4.59 | 75% | – | COc1ccc(CCN2C(=O)C3(CCN(C(N)=NC#N)CC3)N(C)C2c2ccc(C3CC3)cc2)cc1 (stereo not drawn) [Compound 31, 8-(Cyano-1-carboxamidine)-2-(4-cyclopropylphenyl)-3-[2-(4-methoxyphenyl)-ethyl]-1-methyl-1,3,8-triaza-spiro[4.5]decan-4-one] | 25% | – |
| 4.70 | 87% | – | CCONC(=O)N1CCC2(CC1)C(=O)N(CCc1ccc(OC)cc1)C(c1ccc(C3CC3)cc1)N2C (stereo not drawn) [Compound 27, 2-(4-cyclopropylphenyl)-N-ethoxy-3-(4-methoxyphenethyl)-1-methyl-4-oxo-1,3,8-triazaspiro[4.5]decane-8-carboxamide] | 35% | – |
| 5.11 | 93% | 6.59 | COc1ccc(CCN2C(=O)C3(CCN(C(=O)OC(C)(C)C)CC3)NC2c2ccc(OC(F)F)cc2)cc1 (stereo not drawn) [Compound 62, 2-(4-Difluoromethoxyphenyl)-3-[2-(4-methoxyphenyl)ethyl]-4-oxo-1,3,8-triaza-spiro[4.5]decane-8-carboxylic acid tert-butyl ester] | 62% | 5.34 |
| 5.10 | 83% | – | COc1ccc(CCN2C(=O)C3(CCN(C(=O)NNC(=O)OC(C)(C)C)CC3)N(C)C2c2ccc(C3CC3)cc2)cc1 (stereo not drawn) [Compound 29, tert-Butyl 2-({2-(4-cyclopropylphenyl)-3-[2-(4-methoxyphenyl)ethyl]-1-methyl-4-oxo-1,3,8-triazaspiro[4.5]dec-8-yl}carbonyl)hydrazine carboxylate] | 31% | – |
| 4.96 | 91% | 6.46 | CNC(=O)N1CCC2(CC1)C(=O)N(CCc1ccc(OC)cc1)C(c1ccc(C3CC3)cc1)N2C (stereo not drawn) [Compound 8, 2-(4-Cyclopropylphenyl)-3-[2-(4-methoxyphenyl)ethyl]-1-methyl-4-oxo-1,3,8-triaza-spiro[4.5]decane-8-carboxylic acid methyl amide] | 25% | – |
| 4.62 | 80% | 6.40 | COc1ccc(CCN2C(=O)C3(CCN(C(N)=O)CC3)N(C)[C@H]2c2ccc(C3CC3)cc2)cc1 [Compound 99, (R)-2-(4-cyclopropylphenyl)-3-[2-(4-methoxyphenyl)ethyl]-1-methyl-4-oxo-1,3,8-triaza-spiro[4.5]decane-8-carboxylic acid amide] | 24% | 4.80 |
| 5.17 | 93% | – | COc1ccc(CCN2C(=O)C3(CCN(C(=O)C4CC4)CC3)N(C)C2c2ccc(CC(C)C)cc2)cc1 (stereo not drawn) [Compound 83, 8-(cyclopropylcarbonyl)-2-(4-isobutylphenyl)-3-[2-(4-methoxyphenyl)ethyl]-1-methyl-1,3,8-triazaspiro[4.5]decan-4-one] | 84% | – |
| 4.80 | 72% | – | CN1C(c2ccc(C(C)(C)C)cc2)N(CCCc2ccccc2)C(=O)C12CCN(C(N)=O)CC2 (stereo not drawn) [Compound 50, 2-(4-tert-Butylphenyl)-1-methyl-4-oxo-3-(3-phenylpropyl)-1,3,8-triazaspiro-[4.5]decane-8-carboxylic acid amide] | 37% | – |
| 5.52 | 73% | – | COc1ccc(CCN2C(=O)C3(CCN(S(C)(=O)=O)CC3)NC2c2ccc(C(C)(C)C)cc2)cc1 (stereo not drawn) [Compound 63, 2-(4-tert-Butylphenyl)-8-methanesulfonyl-3-[2-(4-methoxyphenyl)ethyl]-1,3,8-triaza-spiro[4.5]decan-4-one] | 40% | – |
